Test results reported in US4835159A, “Ergoline esters useful as serotonin antagonists” (Eli Lilly and Company, priority 1988, dated 1989).
Counter-ions that a name gives are not always drawn. Like-named read-outs stand apart in the source and are kept apart here.

Molecular target: T1, 5HT2 receptors (Rattus norvegicus, UniProt P14842)
T1 construct: external jugular veins and thoracic aortas were dissected free of connective tissue; from tissue; host or cells: isolated external jugular vein of male Wistar rats
Assay: Apparent antagonist dissociation constant (KB) for 5HT2 receptors: serotonin-induced contraction of isolated jugular vein
Parameters: species or system rat (male Wistar)
From the text: Male Wistar rats, each weighing from approximately 150 g to about 300 g, were sacrificed and their external jugular veins and thoracic aortas were dissected free of connective tissue, cannulated in situ and placed in a modified Krebs' bicarbonate buffer in a suitable tissue bath. Two L-shaped 30-gauge stainlesssteel hypodermic needles were inserted into each cannula and the dissected vessels gently pushed onto the needles. One needle was attached with thread to a stationary glass rod and the other to the transducer. The modified Krebs' bicarbonate buffer was composed of the following ingredients in millimoles: sodium chloride, 118.2; potassium chloride, 4.6; calcium chloride dihydrate, 1.6; potassium dihydrogenphosphate, 1.2; magnesium sulfate, 1.2; dextrose, 10.0; sodium bicarbonate, 24.8; and water q.s. to 1000 g. The tissue baths were maintained at 37° C. and were aerated with 95% oxygen-5% carbon dioxide. An initial optimum resting force of 1 g and 4 g was applied to the jugular vein and aorta, respectively. Isometric contractions were recorded as changes in grams of force on a Beckman Dynograph with Statham UC-3 transducers and a microscale accessory attachment. Tissues were allowed to equilibrate 1 to 2 hours before exposure to the test compounds. Control responses to serotonin in the jugular vein and to norepinephrine in the aorta were obtained. The vessels were then incubated with appropriate concentrations of the test compound for one hour. Responses to serotonin or to norepinephrine were then repeated in the presence of the antagonist. Contraction to serotonin was evaluated in the jugular vein since this tissue is known to produce marked responses to serotonin in the absence of alpha receptors. See Cohen and Wiley, J. Pharm. Exp. Ther., 205, 400 (1978). Alpha receptor antagonist activity was evaluated in the aorta.
Apparent antagonist dissociation constants were determined for each concentration of antagonist according to the following equation: […]

T1 sequence (P14842 whole entry): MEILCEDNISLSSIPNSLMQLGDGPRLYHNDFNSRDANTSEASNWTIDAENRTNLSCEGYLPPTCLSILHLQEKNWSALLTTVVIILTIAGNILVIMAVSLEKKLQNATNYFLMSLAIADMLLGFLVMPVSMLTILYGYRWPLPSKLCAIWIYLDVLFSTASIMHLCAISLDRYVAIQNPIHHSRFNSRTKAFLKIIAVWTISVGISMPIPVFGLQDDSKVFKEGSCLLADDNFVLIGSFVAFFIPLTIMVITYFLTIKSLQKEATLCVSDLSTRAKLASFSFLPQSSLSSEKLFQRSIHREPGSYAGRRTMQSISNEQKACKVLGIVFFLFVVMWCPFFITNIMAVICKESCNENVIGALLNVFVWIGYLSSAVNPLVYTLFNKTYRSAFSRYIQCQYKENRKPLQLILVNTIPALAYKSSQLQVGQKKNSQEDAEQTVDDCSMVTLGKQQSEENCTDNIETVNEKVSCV

| Compound | Kb (rat jugular vein, contraction to serotonin, 1 hour incubation with test compound, 37° C., average of the number of trials, read-out: log KB ± standard error (-log KB, serotonin receptor activity) (converted)) [nM] | Kb [nM] |
| --- | --- | --- |
| CC(C)n1cc2c3c(cccc31)[C@H]1C[C@@H](C(=O)OC3CCCC4C(O)CCCC34)CN(C)[C@@H]1C2 (stereo partly drawn) [Example 1, Decahydro-t-hydroxy-1-naphthalenyl 1-isopropyl-9,10-dihydrolysergate maleate] | 0.224 | – |
| CC(C)n1cc2c3c(cccc31)[C@H]1C[C@@H](C(=O)OC3CCC4CCCCC4C3)CN(C)[C@@H]1C2 (stereo partly drawn) [Example 2, Decahydro-2-naphthalenyl 1-isopropyl-9,10-dihydrolysergate maleate] | – | < 100 |
| CC(C)n1cc2c3c(cccc31)[C@H]1C[C@@H](C(=O)OC3CC4CC(O)CC4C3)CN(C)[C@@H]1C2 (stereo partly drawn) [Example 3, Octahydro-5-hydroxy-2-pentalenyl 1-isopropyl-9,10-dihydrolysergate hemihydrate] | – | 0.631 |
